Experimental data: patent US12171754B2, “Combinational uses of nitroxoline and its analogues with chemotherapies and immunotherapies in the treatment of cancers” (Jiangsu Yahong Meditech Co., Ltd., priority 2016, dated 2024)
Several values for one entry are separate records, joined by “and”; a condition that tells them apart may be missing. Equal values may be shown once. Read-outs that look alike come from different tables or passages of the source.

Key:
[1] = system: human bladder cancer cell line 5637; test: MTT assay, inhibition of cell growth (single drugs and combinations with NIT; CI by Chou's method); type: cell-based; settings: for IC25 / IC75: 5637; for Average Fa: 96 hours
Procedure: (§1) The combinational studies of NIT and chemotherapies were conducted by mixing NIT with individual chemotherapies at five to seven concentration levels, with the medium concentration levels close to their IC50 values. The combinational indices (CIs) were calculated and plotted according to Ting-Chao Chou's method (19) to estimate the combinational effects, including synergism, addition and antagonism.
(§2) Compounds: NIT, carboplatin, paclitaxel, epirubicin and pirarubicin were purchased from suppliers, and were dissolved in the DMSO to stock solution and store in −20° C. Before use, the stock solutions were diluted to different concentrations of working solutions. The DMSO concentration in working solutions was less than 1%. All cancer cell lines were purchased from vendors.
(§3) An MTT assay was used as the test method. An appropriate amount of cells (2×10^3/100 μL) was seeded into 96-well plate and incubated at 37° C. in a CO2 incubator overnight for cell adhesion and adaptation. Cancer cells were also seeded in a separate 96-well plate (plate T0), 12 wells/cell line, to measure the OD value at time zero (T0). After overnight adaptation, 20 μL MTT reagent were added per well (final concentration 0.5 mg/mL) to plate T0 and incubated at 37° C. for 4 hours. The supernatant medium was pipetted out, and about 150 μL DMSO were added per well. The plate was read on a plate reader using 550 nm as the test wavelength and 630 nm as the reference wavelength to obtain the OD value at time zero (T0). After overnight adaptation, the test compounds and vehicle were added into the plate to treat the cells. The test compounds were tested at 6 concentrations in triplicate wells. The plate was incubated at 37° C. in a CO2 incubator for 48 h. A longer incubation time can be used. 20 μL MTT reagent were added per well and incubated at 37° C. for 4 h. the supernatant medium was pipetted out, and about 150 μL DMSO were added per well. The plate was read on a plate reader (TECAN, Infinite M200) using about […] as the test wavelength and about […] as the reference wavelength. Cell viability (%) was calculated in two ways: % Viability=[(T−B)/(C−B)]×100% % Viability=[(T−C0)/(C−C0)]×100%
(§4) T: Mean Absorbance of Treatment at various hours;
(§5) C: Mean Absorbance of negative Control at various hours;
(§6) B: Mean Absorbance of blank well (only culture medium) at various hours;
(§7) C0: Mean Absorbance of negative Control at 0 h.
(§8) The results are expressed as mean±SD. The IC50 was calculated by XLfit software. The test for each compound was independently repeated once.

[2] = system: human liver cancer cell line HepG2; test: as above; type: cell-based
Procedure: as §1, §2, §3, §4, §5, §6, §7, §8

[3] = system: MBT-2-Luc bladder cancer; test: Oral NIT with intravesical MMC in orthotopic mouse MBT-2-Luc bladder cancer model; settings: NIT 15 mg/kg Bid oral, MMC 1 mg/ml Q7d intravesical, single drug or actual observed value of combination; for Survival Proportion: end of the experiment (45 days)
Procedure: The tumor volume was analyzed by the Xenogen IVIS200 system following the indicated treatment. […] The tumor volume of each mouse was determined by region-of-interest analysis of total photons per second. Six mice were analyzed in each group.
To establish the orthotopic bladder cancer tumors, the mice were anesthetized by the intraperitoneal (i.p.) administration of ketamine/xylazine solution at a dose of 0.1 ml/10 g body weight (K113; Sigma-Aldrich Japan G.K., Tokyo, Japan). A 24-gauge Teflon intravenous catheter was subsequently inserted through the urethra into the bladder or prostate using an inert lubricant. In order to prepare the bladder for tumor implantation, a brief acid exposure, followed by alkaline neutralization, promoted a chemical lesion on the bladder wall, performed by the intravesical instillation of 8 μl 1 MOI silver nitrate. This led to the formation of an adequate and controlled diffuse bladder wall lesion. After 15 sec, the content was washed out by transurethral infusion of PBS. The first catheter was removed and a new 24-gauge catheter was inserted in the urethra for intravesical instillation of MBT-2-Luc cells (5×10^4 cells mixed with 0.1 ml PBS) and retained for 1.5 h by stitches. Every 10 days, tumor imaging was performed following i.p. administration of luciferin using bioluminescence technology (Xenogen IVIS200 system; Xenogen Corporation, Hopkinton, Mass., USA).
For the NIT and MMC combination, the mice carrying orthotopic bladder cancer tumors were randomly divided into four groups: control (PBS), NIT, MMC, and the combination of NIT and MMC.
(§9) The mice received i.p. injections of luciferin, and the luciferase expression in the tumors was measured by the Xenogen IVIS200 System.
Additivity was determined using the fractional product concept or Bliss Independence model: Exy=Ex+Ey−(ExEy), where EXY is the additive effect of the 2 compounds x and y as calculated by the product of the individual effect of the 2 compounds, Ex and Ey. Synergy was established when the actual observed tumor inhibition value was greater than the expected tumor inhibition value determined by the Bliss Independence model (20).

[4] = system: MBT-2-Luc bladder cancer; design: concentration or dose not given beside the values; settings: mouse, in vivo
[5] = system: RM-9-Luc prostate cancer; test: Oral NIT with intraperitoneal anti-PD-1 antibody in orthotopic mouse RM-9-Luc prostate cancer model; type: in vivo
Procedure: Eight mice were analyzed for each group.
A low abdominal transverse incision was made, and the bilateral dorsal lobes of prostate were exposed. Following the trypsinization of RM-9-Luc cells, 5.0×10^3 cells in 10 μl of Hanks' balanced salt solution were injected using a new 24-gauge catheter directly into the right dorsal lobe of the prostate. A clearly recognizable bleb within the injected prostatic lobe was considered as a sign of a technically satisfactory injection. The abdominal wound was closed with stainless steel clips (Autoclip; Becton Dickinson Co., Sparks, Md.).

[6] = system: MBT-2-Luc bladder cancer; test: Oral NIT with intraperitoneal anti-PD-1 antibody in orthotopic mouse MBT-2-Luc bladder cancer model
Procedure: The tumor volume of each mouse was determined by region-of-interest analysis of total photons per second. Five mice were analyzed in each group.
To establish the orthotopic bladder cancer tumors, the mice were anesthetized by the intraperitoneal (i.p.) administration of ketamine/xylazine solution at a dose of 0.1 ml/10 g body weight (K113; Sigma-Aldrich Japan G.K., Tokyo, Japan). A 24-gauge Teflon intravenous catheter was subsequently inserted through the urethra into the bladder or prostate using an inert lubricant. In order to prepare the bladder for tumor implantation, a brief acid exposure, followed by alkaline neutralization, promoted a chemical lesion on the bladder wall, performed by the intravesical instillation of 8 μl 1 MOI silver nitrate. This led to the formation of an adequate and controlled diffuse bladder wall lesion. After 15 sec, the content was washed out by transurethral infusion of PBS. […]
as §9
Additivity was determined using the fractional product concept or Bliss Independence model: Exy=Ex+Ey−(ExEy), where EXY is the additive effect of the 2 compounds x and y as calculated by the product of the individual effect of the 2 compounds, Ex and Ey.

[7] = Homo sapiens, inhibition of cell growth, 5637 (Table 9), read-out: IC50
[8] = Homo sapiens, cell line 5637, read-out: IC50 for inhibition of cell growth

N.N.O=C([O-])C1(C(=O)[O-])CCC1.[Pt+2] [Carboplatin, carboplatin] was tested. Which “Inhibition Rates” value ([1]; Carbo 0.5 μg/ml, 120 hours) did it give?
Its value is 31.5%.

And the “Inhibition Rates” value ([1]; Carbo 1 μg/ml, 120 hours)?
Its value is 53.7%.

What about the “Inhibition Rates” value ([1]; Carbo 2 μg/ml, 120 hours) of the same compound?
The value was 69.9%.

And the “Inhibition Rates” value ([1]; Carbo 4 μg/ml, 120 hours)?
Its value is 88.1%.

What about the “Inhibition Rates” value ([1]; Carbo 8 μg/ml, 120 hours) of the same compound?
The value was 91.5%.

What about the “IC50 for inhibition of cell growth” value ([1]; cell line 5637) of the same compound?
Its value is 0.917 µg/mL.

And the “Inhibition Rates” value ([2]; Carbo 4 μg/ml, 120 hours)?
The value was 38.9%.

What about the “Inhibition Rates” value ([2]; Carbo 8 μg/ml, 120 hours) of the same compound?
The value was 70.7%.

And the “Inhibition Rates” value ([2]; Carbo 16 μg/ml, 120 hours)?
Its value is 85.2%.

What about the “Inhibition Rates” value ([2]; Carbo 32 μg/ml, 120 hours) of the same compound?
Its value is 89.1%.

What about the “Inhibition Rates” value ([2]; Carbo 64 μg/ml, 120 hours) of the same compound?
The value was 93.0%.

And the “Inhibition Rates” value ([2]; Carbo 128 μg/ml, 120 hours)?
Its value is 93.9%.

And the “IC50 for inhibition of cell growth” value ([2]; cell line HepG2)?
The value was 3.687 µg/mL.

What does the source list for COc1cccc2c1C(=O)c1c(O)c3c(c(O)c1C2=O)C[C@@](O)(C(=O)CO)C[C@@H]3O[C@H]1C[C@H](N)[C@@H](O)[C@H](C)O1 [Epirubicin, epirubicin]?
IC50 [1, 7]: 0.0452 µg/mL; IC25 ([1]; inhibition of cell growth): 0.03497 µg/mL; IC75 ([1]; inhibition of cell growth): 0.06393 µg/mL

Which results are given for CO[C@@]12[C@H](COC(N)=O)C3=C(C(=O)C(C)=C(N)C3=O)N1C[C@@H]1N[C@@H]12 [Mitomycin C, mitomycin C]?
Average Fa ([1]; NIT 0, Mitomycin C 3.13 (units not given)): 1.6%; Average Fa ([1]; NIT 0, Mitomycin C 12.5 (units not given)): 27.7%; Average Fa ([1]; NIT 0, Mitomycin C 50 (units not given)): 77.9%; Average Fa ([1]; NIT 0, Mitomycin C 200 (units not given)): 79.4%; IC25 ([1]; inhibition of cell growth): 0.04836 µg/mL; IC75 ([1]; inhibition of cell growth): 0.53662 µg/mL; IC50 ([1]; inhibition of cell growth, 5637 (Table 9)): 0.15253 µg/mL; Tumor Growth Inhibition [3]: 0.56; Survival Proportion [3]: 0.57

How did the inhibition at 0.25 µg/mL ([1]; Homo sapiens, NIT 0.25 μg/ml, 120 hours, read-out: Inhibition Rates) turn out when O=[N+]([O-])c1ccc(O)c2ncccc12 [NIT, Nitroxoline] was run?
Its inhibition at 0.25 µg/mL is 18%.

What about the inhibition at 0.5 µg/mL ([1]; Homo sapiens, NIT 0.5 μg/ml, 120 hours, read-out: Inhibition Rates) of the same compound?
Its inhibition at 0.5 µg/mL is 52%.

And the inhibition at 1 µg/mL ([1]; Homo sapiens, NIT 1 μg/ml, 120 hours, read-out: Inhibition Rates)?
Its inhibition at 1 µg/mL is 79.9%.

And the inhibition at 2 µg/mL ([1]; Homo sapiens, NIT 2 μg/ml, 120 hours, read-out: Inhibition Rates)?
The inhibition at 2 µg/mL was 92.3%.

What about the inhibition at 4 µg/mL ([1]; Homo sapiens, NIT 4 μg/ml, 120 hours, read-out: Inhibition Rates) of the same compound?
The inhibition at 4 µg/mL was 95.5%.

What about the IC50 [1, 8] of the same compound?
The IC50 was 0.517 µg/mL.

What about the “Average Fa” value ([1]; NIT 625, Mitomycin C 0 (units not given)) of the same compound?
Its value is −7.2%.

What about the “Average Fa” value ([1]; NIT 1250, Mitomycin C 0 (units not given)) of the same compound?
Its value is −3.8%.

And the “Average Fa” value ([1]; NIT 2500, Mitomycin C 0 (units not given))?
The value was 23.3%.

And the “Average Fa” value ([1]; NIT 5000, Mitomycin C 0 (units not given))?
The value was 74.3%.

What about the “Average Fa” value ([1]; NIT 10000, Mitomycin C 0 (units not given)) of the same compound?
The value was 94.0%.

What about the inhibition at 0.5 µg/mL ([2]; Homo sapiens, HepG2, NIT 0.5 μg/ml, 120 hours, read-out: Inhibition Rates) of the same compound?
Its inhibition at 0.5 µg/mL is 3.2%.

And the inhibition at 1 µg/mL ([2]; Homo sapiens, HepG2, NIT 1 μg/ml, 120 hours, read-out: Inhibition Rates)?
Its inhibition at 1 µg/mL is 21.7%.

What about the inhibition at 2 µg/mL ([2]; Homo sapiens, HepG2, NIT 2 μg/ml, 120 hours, read-out: Inhibition Rates) of the same compound?
The inhibition at 2 µg/mL was 80.3%.

And the inhibition at 4 µg/mL ([2]; Homo sapiens, HepG2, NIT 4 μg/ml, 120 hours, read-out: Inhibition Rates)?
The inhibition at 4 µg/mL was 90.5%.

And the inhibition at 8 µg/mL ([2]; Homo sapiens, HepG2, NIT 8 μg/ml, 120 hours, read-out: Inhibition Rates)?
Its inhibition at 8 µg/mL is 93.5%.

And the inhibition at 16 µg/mL ([2]; Homo sapiens, HepG2, NIT 16 μg/ml, 120 hours, read-out: Inhibition Rates)?
Its inhibition at 16 µg/mL is 95.3%.

And the IC50 ([2]; Homo sapiens, cell line HepG2)?
The IC50 was 1.86 µg/mL.

What about the “Tumor Growth Inhibition” value [3] of the same compound?
Its value is 0.33.

What about the “Survival Proportion” value [3] of the same compound?
The value was 0.33.

And the “Survival Proportion” value [4]?
Its value is 0.4.

What about the “Tumor Growth Inhibition” value [4] of the same compound?
The value was 0.52 and 0.35.

What about the “Tumor Weight Proportion” value ([5]; NIT 15 mg/kg bid p.o., anti-PD-1 10 mg/kg q4d intraperitoneal, single drug or actual observed value of combination) of the same compound?
Its value is 0.37.

And the “tumor growth inhibition rate” value ([5]; tumor volume, FIG. 12B, NIT 15 mg/kg oral, anti-PD-1 10 mg/kg intraperitoneal)?
The value was 52%.

And the “Tumor Growth Inhibition” value ([5]; tumor volume, NIT 15 mg/kg bid p.o., anti-PD-1 10 mg/kg q4d intraperitoneal, single drug or actual observed value of combination)?
Its value is 0.52.

What about the “tumor inhibition by tumor weight” value ([5]; tumor weight, FIG. 12D, NIT 15 mg/kg oral, anti-PD-1 10 mg/kg intraperitoneal) of the same compound?
Its value is 37%.

What about the “Tumor Growth Inhibition” value ([6]; NIT 15 mg/kg bid p.o., anti-PD-1 10 mg/kg q5d intraperitoneal, single drug or actual observed value of combination) of the same compound?
Its value is 0.31.

And the tumor inhibition rate ([6]; NIT 15 mg/kg oral, anti-PD-1 10 mg/kg intraperitoneal, FIG. 11B)?
Its tumor inhibition rate is 31%.

Which IC50 [1, 8] does the source give for CC(=O)O[C@H]1C(=O)[C@@]2(C)[C@H]([C@H](OC(=O)c3ccccc3)[C@]3(O)C[C@H](OC(=O)[C@H](O)[C@@H](NC(=O)c4ccccc4)c4ccccc4)C(C)=C1C3(C)C)[C@]1(OC(C)=O)CO[C@@H]1C[C@@H]2O [Paclitaxel, paclitaxel] here?
Its IC50 is 0.000289 µg/mL.

And the “Inhibition Rates” value ([1]; Taxol 0.125 ng/ml, 112 hours)?
Its value is 11.9%.

What about the “Inhibition Rates” value ([1]; Taxol 0.25 ng/ml, 112 hours) of the same compound?
Its value is 47.6%.

What about the “Inhibition Rates” value ([1]; Taxol 0.5 ng/ml, 112 hours) of the same compound?
Its value is 84.3%.

What about the “Inhibition Rates” value ([1]; Taxol 1 ng/ml, 112 hours) of the same compound?
The value was 90.3%.

What about the “Inhibition Rates” value ([1]; Taxol 2 ng/ml, 112 hours) of the same compound?
The value was 96.8%.

What about the IC50 ([2]; Homo sapiens, cell line HepG2) of the same compound?
The IC50 was 0.0025 µg/mL.

What about the “Inhibition Rates” value ([2]; Taxol 0.5 ng/ml, 112 hours) of the same compound?
Its value is 5.8%.

What about the “Inhibition Rates” value ([2]; Taxol 1 ng/ml, 112 hours) of the same compound?
The value was 14.0%.

And the “Inhibition Rates” value ([2]; Taxol 2 ng/ml, 112 hours)?
The value was 47.5%.

And the “Inhibition Rates” value ([2]; Taxol 4 ng/ml, 112 hours)?
Its value is 75.8%.

What about the “Inhibition Rates” value ([2]; Taxol 8 ng/ml, 112 hours) of the same compound?
The value was 90.4%.

What about the “Inhibition Rates” value ([2]; Taxol 16 ng/ml, 112 hours) of the same compound?
Its value is 92.7%.

COc1cccc2c1C(=O)c1c(O)c3c(c(O)c1C2=O)C[C@@](O)(C(=O)CO)C[C@@H]3O[C@H]1C[C@H](N)[C@H](O[C@@H]2CCCCO2)[C@H](C)O1 [Pirarubicin, pirarubicin] was tested. Which IC50 [1, 7] did it give?
Its IC50 is 0.143 µg/mL.

What about the IC25 ([1]; inhibition of cell growth) of the same compound?
The IC25 was 0.09658 µg/mL.

And the IC75 ([1]; inhibition of cell growth)?
The IC75 was 0.21958 µg/mL.
